pIC50: −log10 of the molar value. Converted amounts (≈) assume the structure as drawn.
How the values were obtained:
Sortase A [1] = biological target: T1, Sortase A (Staphylococcus aureus, UniProt Q9S446, N24DEL); assay: Inhibition of Staphylococcus aureus sortase A N24 deletion mutant using Abz-LPATG-Dnp as substrate preincubated for 20 mins followed by substrate addition by FRET assay
Staphylococcus aureus = assay: Bactericidal activity against Staphylococcus aureus Newman assessed as reduction in bacterial growth incubated for 16 to 18 hrs; type: functional; details: time 16-18 hrs
Sortase A [2] = biological target: T1, Sortase A; assay: Inhibition of Staphylococcus aureus Sortase A N24 deletion mutant transpeptidation using IsdA64-323 as substrate preincubated for 20 mins followed by substrate addition and measured after 1.5 hrs by SDS-PAGE analysis

CC(C)c1ccc(/C=C/C=C2C(=O)NC(=O)NC2=O)cc1
pIC50 (Sortase A [1]): 5.74
MIC (Staphylococcus aureus): 32 µg/mL (≈ 113 µM)

O=C1NC(=O)C(=C/C=C/c2ccc(OCc3ccc([N+](=O)[O-])cc3)cc2)C(=O)N1
pIC50 (Sortase A [1]): 5.89
MIC (Staphylococcus aureus): > 128 µg/mL

O=C1NC(=O)C(=C/C=C/c2ccc(C(F)(F)F)cc2)C(=O)N1
pIC50 (Sortase A [1]): 5.85
MIC (Staphylococcus aureus): 64 µg/mL (≈ 206 µM)

O=C1NC(=O)C(=C/C=C/c2cccc(Cl)c2)C(=O)N1
pIC50 (Sortase A [1]): 6.00
MIC (Staphylococcus aureus): 64 µg/mL (≈ 231 µM)

O=C1NC(=O)C(=C/C=C/c2ccc(OCc3cccnc3)cc2)C(=O)N1
pIC50 (Sortase A [1]): < 4.30
MIC (Staphylococcus aureus): > 128 µg/mL

O=C1NC(=O)C(=C/C=C/c2ccc(OCc3ccc(OCc4ccccc4)cc3)cc2)C(=O)N1
pIC50 (Sortase A [1]): < 4.30
MIC (Staphylococcus aureus): > 128 µg/mL

COc1ccc(COc2ccc(/C=C/C=C3C(=O)NC(=O)NC3=O)cc2)cc1
pIC50 (Sortase A [1]): 5.80
MIC (Staphylococcus aureus): > 128 µg/mL

O=C1NC(=O)C(=C/C=C/c2ccc(Br)cc2)C(=O)N1
pIC50 (Sortase A [1]): 6.15
MIC (Staphylococcus aureus): 64 µg/mL (≈ 199 µM)
pIC50 (Sortase A [2]): 5.05

COC(=O)c1ccc(/C=C/C=C2C(=O)NC(=O)NC2=O)cc1
pIC50 (Sortase A [1]): 5.66
MIC (Staphylococcus aureus): > 128 µg/mL

O=C1NC(=O)C(=C/C=C/c2ccc([N+](=O)[O-])cc2)C(=O)N1
pIC50 (Sortase A [1]): 5.70
MIC (Staphylococcus aureus): 128 µg/mL (≈ 446 µM)

COc1cccc(/C=C/C=C2C(=O)NC(=O)NC2=O)c1
pIC50 (Sortase A [1]): 5.68
MIC (Staphylococcus aureus): 128 µg/mL (≈ 470 µM)

O=C1NC(=O)C(=C/C=C/c2ccc(F)cc2)C(=O)N1
pIC50 (Sortase A [1]): 5.89
MIC (Staphylococcus aureus): > 128 µg/mL
pIC50 (Sortase A [2]): 5.13

O=C1NC(=O)C(=C/C=C/c2cc(Cl)cc(Cl)c2)C(=O)N1
pIC50 (Sortase A [1]): 5.70
MIC (Staphylococcus aureus): 64 µg/mL (≈ 206 µM)

O=C1NC(=O)C(=C/C=C/c2ccc(Cl)cc2)C(=O)N1
pIC50 (Sortase A [1]): 6.00
MIC (Staphylococcus aureus): 128 µg/mL (≈ 463 µM)
